Source: patent publication US20260131009A1, “BIFUNCTIONAL PI3K-ALPHA INHIBITORS AND USES THEREOF” (Relay Therapeutics, Inc., priority 2021, published 2026)
pIC50: −log10 of the molar value.

biological target: PI3Kα (Homo sapiens, UniProt P42336, H1047R); assay: ADP-Glo IC50 assay; type: biochemical; details: class symbols; key not given
Sequence (P42336 whole entry H1047R): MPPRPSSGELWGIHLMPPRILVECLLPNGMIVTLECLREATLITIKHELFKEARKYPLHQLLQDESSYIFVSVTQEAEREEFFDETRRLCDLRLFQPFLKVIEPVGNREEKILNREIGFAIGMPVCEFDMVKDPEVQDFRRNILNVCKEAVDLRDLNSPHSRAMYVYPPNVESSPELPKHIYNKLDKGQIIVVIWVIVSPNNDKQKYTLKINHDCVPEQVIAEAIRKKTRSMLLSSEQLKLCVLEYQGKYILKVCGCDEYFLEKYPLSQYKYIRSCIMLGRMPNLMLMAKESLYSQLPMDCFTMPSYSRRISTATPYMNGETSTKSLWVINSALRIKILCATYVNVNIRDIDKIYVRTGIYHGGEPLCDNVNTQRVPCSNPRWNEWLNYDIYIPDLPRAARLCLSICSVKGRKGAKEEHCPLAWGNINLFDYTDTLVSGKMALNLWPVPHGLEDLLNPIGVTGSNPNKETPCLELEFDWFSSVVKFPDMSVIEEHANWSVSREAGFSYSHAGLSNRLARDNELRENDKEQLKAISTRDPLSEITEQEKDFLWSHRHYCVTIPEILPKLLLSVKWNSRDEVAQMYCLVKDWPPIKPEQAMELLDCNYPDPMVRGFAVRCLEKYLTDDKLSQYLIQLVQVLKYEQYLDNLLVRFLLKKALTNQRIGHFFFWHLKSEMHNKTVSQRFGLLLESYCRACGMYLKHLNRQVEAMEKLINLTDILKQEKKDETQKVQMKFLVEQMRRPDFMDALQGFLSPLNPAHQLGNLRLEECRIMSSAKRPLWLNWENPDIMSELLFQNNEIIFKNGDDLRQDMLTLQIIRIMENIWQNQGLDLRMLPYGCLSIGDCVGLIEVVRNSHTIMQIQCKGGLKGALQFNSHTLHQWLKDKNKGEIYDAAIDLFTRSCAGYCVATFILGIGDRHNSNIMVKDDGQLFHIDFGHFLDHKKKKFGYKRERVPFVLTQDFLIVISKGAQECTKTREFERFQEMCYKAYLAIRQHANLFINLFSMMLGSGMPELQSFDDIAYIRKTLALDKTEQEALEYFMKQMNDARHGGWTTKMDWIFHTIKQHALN
Sequence (P27986 whole entry partner): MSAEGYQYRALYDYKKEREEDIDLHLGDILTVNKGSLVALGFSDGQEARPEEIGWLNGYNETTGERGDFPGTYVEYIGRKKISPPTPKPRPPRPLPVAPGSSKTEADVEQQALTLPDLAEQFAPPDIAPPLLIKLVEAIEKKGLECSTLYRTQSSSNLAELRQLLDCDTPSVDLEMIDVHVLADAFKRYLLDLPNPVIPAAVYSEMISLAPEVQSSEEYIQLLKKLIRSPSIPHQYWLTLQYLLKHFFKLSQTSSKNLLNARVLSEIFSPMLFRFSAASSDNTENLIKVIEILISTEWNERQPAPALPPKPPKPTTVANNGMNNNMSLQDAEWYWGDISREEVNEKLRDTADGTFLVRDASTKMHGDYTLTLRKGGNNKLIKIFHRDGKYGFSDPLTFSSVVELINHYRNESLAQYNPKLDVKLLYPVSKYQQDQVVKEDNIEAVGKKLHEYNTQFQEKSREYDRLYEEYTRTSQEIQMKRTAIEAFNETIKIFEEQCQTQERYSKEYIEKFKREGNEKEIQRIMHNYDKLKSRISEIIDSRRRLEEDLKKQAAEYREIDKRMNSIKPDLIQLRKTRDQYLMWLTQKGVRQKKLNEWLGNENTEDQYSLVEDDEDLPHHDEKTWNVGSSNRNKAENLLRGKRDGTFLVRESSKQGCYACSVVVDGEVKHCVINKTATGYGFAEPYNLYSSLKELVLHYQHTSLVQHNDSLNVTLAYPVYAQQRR

| Structure (SMILES) | pIC50 |
| --- | --- |
| Cc1ccccc1Nc1ncc(C(=O)NCCc2ccc(Nc3ccc4c(c3)C(=O)N(C3CCC(=O)NC3=O)C4=O)cc2)cc1NC(=O)c1csc2ccccc12 (centres unmarked) [Example I-64] | 6.30 to 7.00 |
| Cc1ccccc1Nc1ncc(C(=O)NCCCCC(=O)N[C@H](C(=O)N2C[C@H](O)C[C@H]2C(=O)NCc2ccc(-c3scnc3C)cc2)C(C)(C)C)cc1NC(=O)c1csc2ccccc12 [Example I-43] | 6.00 to 6.30 |
| O=C1CCC(N2Cc3cc(C(=O)NCCCCCCCNC(=O)c4cc(NC(=O)c5cc(F)cc(C(F)(F)F)c5)c5c(c4)C(=O)N[C@H]5c4cc(F)ccc4Cl)ccc3C2=O)C(=O)N1 (some centres unmarked) [Example I-77] | > 7.00 |
| O=C1CCC(N2Cc3cc(C(=O)NCCCCCCCCCNC(=O)c4cc(NC(=O)c5cccc(C(F)(F)F)c5)c5c(c4)C(=O)N[C@@H]5c4cc(F)ccc4Cl)ccc3C2=O)C(=O)N1 (some centres unmarked) [Example I-155] | 5.00 to 6.00 |
| O=C1CCC(N2Cc3cc(C(=O)NCCCCCCCCCNC(=O)c4cc(NC(=O)c5cccc(C(F)(F)F)c5)c5c(c4)C(=O)N[C@H]5c4cc(F)ccc4Cl)ccc3C2=O)C(=O)N1 (some centres unmarked) [Example I-162] | 6.00 to 6.30 |
| Cc1ncsc1-c1ccc(CNC(=O)[C@@H]2C[C@@H](O)CN2C(=O)[C@@H](NC(=O)CCCCCCCCCNC(=O)c2cc(NC(=O)c3nsc4ccccc34)c3n2CC(=O)N[C@@H]3c2cc(F)ccc2Cl)C(C)(C)C)cc1 [Example I-107] | > 7.00 |
| O=C(CCCCCCCNC(=O)c1cc(NC(=O)c2cc(F)cc(C(F)(F)F)c2)c2c(c1)C(=O)N[C@@H]2c1cc(F)ccc1Cl)NCc1ccc2c(c1)CN(C1CCC(=O)NC1=O)C2=O (some centres unmarked) [Example I-92] | 6.00 to 6.30 |
| Cc1ncsc1-c1ccc(CNC(=O)[C@@H]2C[C@@H](O)CN2C(=O)[C@@H](NC(=O)CCCCCCCCCNC(=O)c2cc(NC(=O)c3cc(F)cc(C(F)(F)F)c3)c3c(c2)C(=O)N[C@@H]3c2cc(F)ccc2Cl)C(C)(C)C)cc1 [Example I-73] | > 7.00 |
| Cc1ncsc1-c1ccc([C@H](C)NC(=O)[C@@H]2C[C@@H](O)CN2C(=O)[C@@H](NC(=O)CCCCCCCCCNC(=O)c2cc(NC(=O)c3cc(F)cc(C(F)(F)F)c3)c3c(c2)C(=O)N[C@H]3c2cc(F)ccc2Cl)C(C)(C)C)cc1 [Example I-88] | 6.00 to 6.30 |
| Cc1ccccc1Nc1ncc(C(=O)NCCCC(=O)N[C@H](C(=O)N2C[C@H](O)C[C@H]2C(=O)NCc2ccc(-c3scnc3C)cc2)C(C)(C)C)cc1NC(=O)c1csc2ccccc12 [Example I-48] | 6.00 to 6.30 |
| O=C1CCC(N2Cc3cc(C(=O)NCCCCCCCCCNC(=O)c4cc(NC(=O)c5cc(F)cc(C(F)(F)F)c5)c5c(c4)C(=O)N[C@@H]5c4cc(F)ccc4Cl)ccc3C2=O)C(=O)N1 (some centres unmarked) [Example I-70] | 5.00 to 6.00 |
| Cc1ccccc1Nc1ncc(C(=O)NCCCCCCC(=O)N[C@H](C(=O)N2C[C@H](O)C[C@H]2C(=O)N[C@@H](C)c2ccc(-c3scnc3C)cc2)C(C)(C)C)cc1NC(=O)c1csc2ccccc12 [Example I-23] | 6.30 to 7.00 |
| Cc1ccccc1Nc1ncc(C(=O)NCCOCCOCCC(=O)NCc2ccc3c(c2)CN(C2CCC(=O)NC2=O)C3=O)cc1NC(=O)c1csc2ccccc12 (centres unmarked) [Example I-30] | 5.00 to 6.00 |
| O=C1CCC(N2Cc3cc(C(=O)NCCCCCCCNC(=O)c4cc(NC(=O)c5cc(F)cc(C(F)(F)F)c5)c5c(c4)C(=O)N[C@@H]5c4cc(F)ccc4Cl)ccc3C2=O)C(=O)N1 (some centres unmarked) [Example I-80] | 6.30 to 7.00 |
| NC(=O)CCCCCCCCCNC(=O)c1cc(NC(=O)c2nsc3ccccc23)c2n1CC(=O)N[C@@H]2c1cc(F)ccc1Cl [Example I-103] | > 7.00 |
| NC(=O)CCCCCCCCCNC(=O)c1cc(NC(=O)c2cc(F)cc(C(F)(F)F)c2)c2c(c1)C(=O)N[C@@H]2c1cc(F)ccc1Cl [Example I-83] | > 7.00 |
| Cc1ccccc1Nc1ncc(C(=O)NCCCCCC(=O)N[C@H](C(=O)N2C[C@H](O)C[C@H]2C(=O)NCc2ccc(-c3scnc3C)cc2)C(C)(C)C)cc1NC(=O)c1csc2ccccc12 [Example I-38] | 6.30 to 7.00 |
| COC(=O)CCCCCCCCCNC(=O)c1cnc(Nc2ccccc2C)c(NC(=O)c2csc3ccccc23)c1 [Example I-27] | 6.00 to 6.30 |
| O=C1CCC(N2C(=O)c3ccc(NCCCCCCCNC(=O)c4cc(NC(=O)c5cc(F)cc(C(F)(F)F)c5)c5c(c4)C(=O)N[C@@H]5c4cc(F)ccc4Cl)cc3C2=O)C(=O)N1 (some centres unmarked) [Example I-89] | 6.00 to 6.30 |

The remaining lines, values ahead:

| pIC50 | Structure (SMILES) |
| --- | --- |
| 5.00 to 6.00 | Cc1cc([C@H](C)Nc2ccccc2C(=O)O)c2oc(N3CCN(C(=O)CCNc4ccc5c(c4)C(=O)N(C4CCC(=O)NC4=O)C5=O)CC3)cc(=O)c2c1 (some centres unmarked) [Example I-130] |
| 5.00 to 6.00 | Cc1cc([C@@H](C)Nc2ccccc2C(=O)O)c2oc(N3CCN(C(=O)CCOCCNc4cccc5c4C(=O)N(C4CCC(=O)NC4=O)C5=O)CC3)cc(=O)c2c1 (some centres unmarked) [Example I-145] |
| > 7.00 | Cc1cc([C@@H](C)Nc2ccccc2)c2oc(N3CCN(C(=O)CCOCCOCCNC(=O)c4cnc(Nc5ccccc5C)c(NC(=O)c5csc6ccccc56)c4)CC3)cc(=O)c2c1 [Example I-111] |
| 5.00 to 6.00 | Cc1cc([C@@H](C)Nc2ccccc2C(=O)O)c2oc(N3CCN(C(=O)CCOCCNc4ccc5c(c4)C(=O)N(C4CCC(=O)NC4=O)C5=O)CC3)cc(=O)c2c1 (some centres unmarked) [Example I-144] |
| 6.30 to 7.00 | Cc1cc([C@H](C)Nc2ccccc2C(=O)O)c2oc(N3CCN(C(=O)CCOCCOCCNC(=O)c4cnc(Nc5ccccc5C)c(NC(=O)c5csc6ccccc56)c4)CC3)cc(=O)c2c1 [Example I-126] |
| 5.00 to 6.00 | Cc1cc([C@H](C)Nc2ccccc2C(=O)O)c2oc(N3CCN(C(=O)CCC(=O)NCc4ccc5c(c4)C(=O)N(C4CCC(=O)NC4=O)C5)CC3)cc(=O)c2c1 (some centres unmarked) [Example I-127] |
| 5.00 to 6.00 | Cc1cc([C@H](C)Nc2ccccc2C(=O)O)c2oc(N3CCN(C(=O)CCCCCNc4cccc5c4C(=O)N(C4CCC(=O)NC4=O)C5=O)CC3)cc(=O)c2c1 (some centres unmarked) [Example I-137] |
| 5.00 to 6.00 | Cc1cc([C@@H](C)Nc2ccccc2C(=O)O)c2oc(N3CCN(C(=O)CCCNc4ccc5c(c4)C(=O)N(C4CCC(=O)NC4=O)C5=O)CC3)cc(=O)c2c1 (some centres unmarked) [Example I-146] |
| 5.00 to 6.00 | Cc1cc([C@@H](C)Nc2ccccc2C(=O)O)c2oc(N3CCN(C(=O)CCCCCCCNc4cccc5c4C(=O)N(C4CCC(=O)NC4=O)C5=O)CC3)cc(=O)c2c1 (some centres unmarked) [Example I-143] |
| 5.00 to 6.00 | Cc1cc([C@H](C)Nc2ccccc2C(=O)O)c2oc(N3CCN(C(=O)CCOCCNc4ccc5c(c4)C(=O)N(C4CCC(=O)NC4=O)C5=O)CC3)cc(=O)c2c1 (some centres unmarked) [Example I-138] |
| 5.00 to 6.00 | Cc1cc(Br)c2oc(N3CCN(C(=O)CCOCCOCCNC(=O)c4cnc(Nc5ccccc5C)c(NC(=O)c5csc6ccccc56)c4)CC3)cc(=O)c2c1 [Example I-91] |
| 5.00 to 6.00 | Cc1cc([C@H](C)Nc2ccccc2C(=O)O)c2oc(N3CCN(C(=O)CCCNc4ccc5c(c4)C(=O)N(C4CCC(=O)NC4=O)C5=O)CC3)cc(=O)c2c1 (some centres unmarked) [Example I-147] |
| 6.30 to 7.00 | Cc1cc(Br)c2oc(N3CCN(C(=O)CCCCCNC(=O)c4cnc(Nc5ccccc5C)c(NC(=O)c5csc6ccccc56)c4)CC3)cc(=O)c2c1 [Example I-101] |
| 5.00 to 6.00 | Cc1cc([C@H](C)Nc2ccccc2C(=O)O)c2oc(N3CCN(C(=O)CCNc4cccc5c4C(=O)N(C4CCC(=O)NC4=O)C5=O)CC3)cc(=O)c2c1 (some centres unmarked) [Example I-134] |
| 6.30 to 7.00 | Cc1ccccc1Nc1ncc(C(=O)NCCCCCCCCNc2ccc3c(c2)C(=O)N(C2CCC(=O)NC2=O)C3=O)cc1NC(=O)c1csc2ccccc12 (centres unmarked) [Example I-16] |
| 6.30 to 7.00 | Cc1cc(Br)c2oc(N3CCN(C(=O)CCCCCCNC(=O)c4cnc(Nc5ccccc5C)c(NC(=O)c5csc6ccccc56)c4)CC3)cc(=O)c2c1 [Example I-108] |
